The source of these data is ChEMBL document CHEMBL1124522, “Synthesis and antitumor activity of 5-deaza-5,6,7,8-tetrahydrofolic acid and its N10-substituted analogues” (J Med Chem, 1989).

Molecules are shown by their SMILES.

Data set [1] in a line: Percent inhibition against 6C3HED lymphosarcoma at dose 50 mg/kg in C3H mice. The following applies: Mus musculus. The class given is functional.
Data set [2] can be described thus: Percent inhibition against 6C3HED lymphosarcoma at dose 100 mg/kg in C3H mice. The class given is functional. To be noted: Mus musculus.
Data set [3] in a line: Percent inhibition against 6C3HED lymphosarcoma at dose 12.5 mg/kg in C3H mice. The class given is functional. The following applies: Mus musculus.
Data set [4] can be described thus: In vivo antitumor activity (toxic/total) at dose 12.5 mg/kg in C3H mice with transplantable murine solid tumor C3H mammary adenocarcinoma; Compound was tested on 10 mice. Format: functional, Mus musculus.
A short description of data set [5]: In vivo antitumor activity (toxic/total) at dose 25 mg/kg in C3H mice with transplantable murine solid tumor C3H mammary adenocarcinoma; Compound was tested on 10 mice. Format: functional, Mus musculus.
The nature of data set [6]: In vivo antitumor activity (toxic/total) at dose 50 mg/kg in C3H mice with transplantable murine solid tumor C3H mammary adenocarcinoma; Compound was tested on 10 mice. The class given is functional, Mus musculus.
Data set [7] relates to CCRF-CEM. Description: Compound was tested for its antitumor activity against human lymphoblastic leukemic cells(CCRF-CEM) in vitro. Format: functional, cell-based. The following applies: ccrf-cem.
Data set [8] in a line: In vivo anti tumor activity (toxic/total) at dose 12.5 mg/kg in C3H mice with transplantable murine solid tumor 6C3HED lymphosarcoma; Compound was tested on 10 mice. Format: functional, Mus musculus.
A short description of data set [9]: In vivo anti tumor activity (toxic/total) at dose 25 mg/kg in C3H mice with transplantable murine solid tumor 6C3HED lymphosarcoma; Compound was tested on 10 mice. The class given is functional, Mus musculus.
A short description of data set [10]: In vivo anti tumor activity (toxic/total) at dose 50 mg/kg in C3H mice with transplantable murine solid tumor 6C3HED lymphosarcoma; Compound was tested on 10 mice. Format: functional, Mus musculus.
Data set [11] in a line: Percent inhibition against C3H mammary adenocarcinoma at dose 12.5 mg/kg in C3H mice. Format: functional. To be noted: Mus musculus.
Data set [12] can be described thus: Percent inhibition against C3H mammary adenocarcinoma at dose 25 mg/kg in C3H mice. The class given is functional. To be noted: Mus musculus.
A short description of data set [13]: Percent inhibition against C3H mammary adenocarcinoma at dose 50 mg/kg in C3H mice;Compound was toxic. The class given is ADME, organism-based. Details: dose 50 mg/kg. The following applies: mouse, in vivo.
Data set [14] in a line: In vivo anti tumor activity (toxic/total) at dose 100 mg/kg in C3H mice with transplantable murine solid tumor 6C3HED lymphosarcoma; Compound was tested on 10 mice. Format: functional, Mus musculus.
Data set [15] is described as follows: Percent inhibition against 6C3HED lymphosarcoma at dose 25 mg/kg in C3H mice. The following applies: Mus musculus. Format: functional.

What is called inhibition in vivo is the share of the control response that was lost under treatment. High values mean a strong effect, low ones a weak effect. Usually IC50 stands for the concentration that gives 50% inhibition. A high value points to a need for much substance.

`Nc1nc(O)c2c(n1)NCC(CN(C=O)c1ccc(C(=O)N[C@@H](CCC(=O)O)C(=O)O)cc1)C2` (stereo in doubt; 7b) showed an inhibition in vivo at 50 mg/kg in data set [1] of 100%. In [2], at 100 mg/kg the inhibition in vivo was 100%. Besides, the inhibition in vivo at 12.5 mg/kg in [3] was found to be 95%; in data set [11], 86%. Besides, the tox/total was 0 in [4]; 6 in data set [5]; 10 in data set [6]; 1 in data set [8]; 1 in [9]; 5 in [10]. Also, in [14], the tox/total is given as 7. Besides, the IC50 in data set [7] came out at 50 nM. Also, the inhibition in vivo at 25 mg/kg worked out at 98% in data set [12] and 100% in data set [15]. In addition, the Inhibition entry in data set [13] is “Toxic”.
